For this assay, the system named is BDF1 mice, P388 leukemia ip, median survival T/C. The assay is described as follows: NCI In Vivo Anticancer Drug Screen. Data for tumor model P388 Leukemia (intraperitoneal) in B6D2F1 (BDF1) mice. To be noted: endpoint: median survival time, higher = longer survival. In outline: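 In tumour-bearing mice, survival after compound treatment is set against the vehicle group and given as a quotient.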

The mark [1] stands for this setting: dose: 50.0 mg/kg/injection, schedule: Q01DX009 (ip), vehicle: saline with Tween-80.
[2] abbreviates: dose: 100.0 mg/kg/injection, schedule: Q01DX009 (ip), vehicle: saline with Tween-80.

The source of these data is PubChem BioAssay AID328 (DTP/NCI, 2004).

Where “and” joins values, the source holds several entries; their conditions need not be identical. Equal entries are not always repeated. Inconclusive results and toxic doses are left out.

In the case of `COC(OC)c1cc(=O)[nH]c(=S)n1Cl`, the T/C (dose: 100.0 mg/kg/injection, schedule: Q04DX003 (ip), vehicle: Klucel (hydroxypropylcellulose) (HPC)) is 100 % of control; the T/C (dose: 200.0 mg/kg/injection, schedule: Q04DX003 (ip), vehicle: Klucel (hydroxypropylcellulose) (HPC)) was 104 % of control; the T/C (dose: 400.0 mg/kg/injection, schedule: Q04DX003 (ip), vehicle: Klucel (hydroxypropylcellulose) (HPC)) is 100 % of control.

As to `COc1ccc2[nH]c3c(C)c4ccncc4c(C)c3c2c1`, the T/C reads like this: (dose: 4.68 mg/kg/injection, schedule: Q01DX009 (ip), vehicle: water) 117 % of control; (dose: 9.37 mg/kg/injection, schedule: Q01DX009 (ip), vehicle: water) 88 % of control; (dose: 9.37 mg/kg/injection, schedule: Q04DX003 (ip), vehicle: water) 176 % of control; (dose: 18.5 mg/kg/injection, schedule: Q01DX009 (ip), vehicle: other) 87 % of control; (dose: 18.5 mg/kg/injection, schedule: Q04DX003 (ip), vehicle: water) 188 % of control; (dose: 18.75 mg/kg/injection, schedule: Q01DX001 (ip), vehicle: other) 112 % of control. Further, the T/C was 176 % of control (dose: 18.75 mg/kg/injection, schedule: Q01DX001 (ip), vehicle: water); 94 % of control (dose: 18.75 mg/kg/injection, schedule: Q01DX009 (ip), vehicle: water); 116 % of control (dose: 37.5 mg/kg/injection, schedule: Q01DX001 (ip), vehicle: other); 164 % of control (dose: 37.5 mg/kg/injection, schedule: Q01DX001 (ip), vehicle: water); 158 % of control (dose: 37.5 mg/kg/injection, schedule: Q04DX003 (ip), vehicle: other); 200 % of control (dose: 75.0 mg/kg/injection, schedule: Q01DX001 (ip), vehicle: water). Besides, the T/C (dose: 75.0 mg/kg/injection, schedule: Q04DX003 (ip), vehicle: other) is 95 % of control.

`CC(=O)OC1C(=O)C(O)C(C)OC1O[C@@H]1C[C@@]2(C)[C@@H]3CC=C4[C@@H](C[C@H](O)C(=O)C4(C)C)[C@]3(C)C(=O)C[C@]2(C)[C@H]1[C@@](C)(O)C(=O)/C=C/C(C)(C)O` (stereo partly specified): the T/C was 104 % of control (dose: 0.13 mg/kg/injection, schedule: Q01DX009 (ip), vehicle: Klucel (hydroxypropylcellulose) (HPC)); 107 % of control and 110 % of control (dose: 0.16 mg/kg/injection, schedule: Q01DX010 (ip), vehicle: saline); 109 % of control (dose: 0.25 mg/kg/injection, schedule: Q01DX009 (ip), vehicle: Klucel (hydroxypropylcellulose) (HPC)); 90 % of control (dose: 0.25 mg/kg/injection, schedule: Q01DX010 (ip), vehicle: carboxymethylcellulose (CMC)); 109 % of control and 110 % of control (dose: 0.33 mg/kg/injection, schedule: Q01DX010 (ip), vehicle: saline); 118 % of control (dose: 0.5 mg/kg/injection, schedule: Q01DX009 (ip), vehicle: Klucel (hydroxypropylcellulose) (HPC)). The T/C (dose: 0.5 mg/kg/injection, schedule: Q01DX010 (ip), vehicle: carboxymethylcellulose (CMC)) was 87 % of control and 90 % of control; the T/C (dose: 0.67 mg/kg/injection, schedule: Q01DX010 (ip), vehicle: saline) was 108 % of control and 110 % of control; the T/C (dose: 1.0 mg/kg/injection, schedule: Q01DX009 (ip), vehicle: Klucel (hydroxypropylcellulose) (HPC)) was 113 % of control; the T/C (dose: 1.25 mg/kg/injection, schedule: Q01DX010 (ip), vehicle: saline) is 109 % of control and 110 % of control; the T/C (dose: 1.4 mg/kg/injection, schedule: Q01DX009 (ip), vehicle: saline) was 150 % of control; the T/C (dose: 2.0 mg/kg/injection, schedule: Q01DX009 (ip), vehicle: Klucel (hydroxypropylcellulose) (HPC)) was 90 % of control. Besides, the T/C by setting is: (dose: 2.5 mg/kg/injection, schedule: Q01DX010 (ip), vehicle: saline) 110 % of control and 111 % of control; (dose: 2.6 mg/kg/injection, schedule: Q01DX009 (ip), vehicle: saline) 120 % of control.

Turning to `Cc1cc(Cl)ccc1Nc1sc(C(=O)c2cc3cc(Cl)ccc3o2)c(N)c1C#N`, the T/C reads like this: under setting [1], 104 % of control; under setting [2], 93 % of control; (dose: 200.0 mg/kg/injection, schedule: Q01DX009 (ip), vehicle: saline with Tween-80) 89 % of control.

As to `CC(C)CSc1ncnc2nc[nH]c12`, the T/C reads like this: (dose: 25.0 mg/kg/injection, schedule: Q01DX009 (ip), vehicle: saline with Tween-80) 90 % of control; under setting [1], 100 % of control; under setting [2], 104 % of control and 122 % of control; (dose: 100.0 mg/kg/injection, schedule: Q04DX003 (ip), vehicle: saline with Tween-80) 104 % of control; (dose: 200.0 mg/kg/injection, schedule: Q04DX003 (ip), vehicle: saline with Tween-80) 86 % of control; (dose: 400.0 mg/kg/injection, schedule: Q04DX003 (ip), vehicle: saline with Tween-80) 86 % of control.

`C=C1C/C(=C/C)C(=O)O[C@@H]2CCN3CC=C(COC(=O)[C@]1(C)O)[C@H]23`: the T/C reads like this: (dose: 25.0 mg/kg/injection, schedule: Q01DX010 (ip), vehicle: carboxymethylcellulose (CMC)) 111 % of control; (dose: 50.0 mg/kg/injection, schedule: Q01DX010 (ip), vehicle: carboxymethylcellulose (CMC)) 111 % of control; (dose: 100.0 mg/kg/injection, schedule: Q01DX010 (ip), vehicle: carboxymethylcellulose (CMC)) 111 % of control.

Turning to `COC(=O)[CH](C[N+](=O)[O-])[Hg][Cl]` (stereo unspecified), the T/C was 104 % of control (dose: 1.56 mg/kg/injection, schedule: Q01DX009 (ip), vehicle: Klucel (hydroxypropylcellulose) (HPC)); 104 % of control (dose: 2.32 mg/kg/injection, schedule: Q04DX003 (ip), vehicle: Klucel (hydroxypropylcellulose) (HPC)); 113 % of control (dose: 3.12 mg/kg/injection, schedule: Q01DX009 (ip), vehicle: Klucel (hydroxypropylcellulose) (HPC)); 113 % of control (dose: 4.65 mg/kg/injection, schedule: Q04DX003 (ip), vehicle: Klucel (hydroxypropylcellulose) (HPC)).
